Source: PubChem BioAssay (NCI)
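GI50: concentration for 50% inhibition of growth. Definition used: TGI = concentration required for complete inhibition of growth.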

Experiments:
Experiment in all cases: NCI-60 cell line screen, 384-well format
786-0 renal = tested on: 786-0 renal
A498 renal = tested on: A498 renal
A549 NSCLC = tested on: A549 NSCLC
ACHN renal = tested on: ACHN renal
BT-549 breast = tested on: BT-549 breast
CAKI-1 renal = tested on: CAKI-1 renal
CCRF-CEM leukemia = tested on: CCRF-CEM leukemia
COLO 205 colon = tested on: COLO 205 colon
DU-145 prostate = tested on: DU-145 prostate
EKVX NSCLC = tested on: EKVX NSCLC
HCC-2998 colon = tested on: HCC-2998 colon
HCT-116 colon = tested on: HCT-116 colon
HCT-15 colon = tested on: HCT-15 colon
HL-60(TB) leukemia = tested on: HL-60(TB) leukemia
HOP-62 NSCLC = tested on: HOP-62 NSCLC
HOP-92 NSCLC = tested on: HOP-92 NSCLC
HS 578T breast = tested on: HS 578T breast
HT29 colon = tested on: HT29 colon
IGROV1 ovarian = tested on: IGROV1 ovarian
K-562 leukemia = tested on: K-562 leukemia
KM12 colon = tested on: KM12 colon
LOX IMVI melanoma = tested on: LOX IMVI melanoma
M14 melanoma = tested on: M14 melanoma
MALME-3M melanoma = tested on: MALME-3M melanoma
MCF7 breast = tested on: MCF7 breast
MDA-MB-231 breast = tested on: MDA-MB-231 breast
MDA-MB-435 melanoma = tested on: MDA-MB-435 melanoma
MDA-MB-468 breast = tested on: MDA-MB-468 breast
MOLT-4 leukemia = tested on: MOLT-4 leukemia
NCI-H226 lung = tested on: NCI-H226 lung
NCI-H23 lung = tested on: NCI-H23 lung
NCI-H322M lung = tested on: NCI-H322M lung
NCI-H460 NSCLC = tested on: NCI-H460 NSCLC
NCI-H522 lung = tested on: NCI-H522 lung
NCI/ADR-RES ovarian = tested on: NCI/ADR-RES ovarian
OVCAR-3 ovarian = tested on: OVCAR-3 ovarian
OVCAR-4 ovarian = tested on: OVCAR-4 ovarian
OVCAR-5 ovarian = tested on: OVCAR-5 ovarian
OVCAR-8 ovarian = tested on: OVCAR-8 ovarian
PC-3 prostate = tested on: PC-3 prostate
RPMI-8226 leukemia = tested on: RPMI-8226 leukemia
RXF 393 renal = tested on: RXF 393 renal
SF-268 CNS = tested on: SF-268 CNS
SF-295 CNS = tested on: SF-295 CNS
SF-539 CNS = tested on: SF-539 CNS
SK-MEL-28 melanoma = tested on: SK-MEL-28 melanoma
SK-MEL-5 melanoma = tested on: SK-MEL-5 melanoma
SK-OV-3 ovarian = tested on: SK-OV-3 ovarian
SN12C renal = tested on: SN12C renal
SNB-19 CNS = tested on: SNB-19 CNS
SNB-75 CNS = tested on: SNB-75 CNS
SW-620 colon = tested on: SW-620 colon
T-47D breast = tested on: T-47D breast
TK-10 renal = tested on: TK-10 renal
U251 glioblastoma = tested on: U251 glioblastoma
UACC-257 melanoma = tested on: UACC-257 melanoma
UACC-62 melanoma = tested on: UACC-62 melanoma
UO-31 renal = tested on: UO-31 renal

## CCN1CCN(c2ccc(Nc3cc(N(C)C(=O)Nc4c(Cl)c(OC)cc(OC)c4Cl)ncn3)cc2)CC1
786-0 renal
  GI50: 1430 nM
  TGI: 2760 nM
A498 renal
  GI50: 478 nM
  TGI: 1920 nM
A549 NSCLC
  GI50: 1910 nM
  TGI: 3850 nM
ACHN renal
  GI50: 1400 nM
  TGI: 3000 nM
BT-549 breast
  GI50: 518 nM
  TGI: 1990 nM
CAKI-1 renal
  GI50: 590 nM
  TGI: 2120 nM
CCRF-CEM leukemia
  GI50: 1580 nM
  TGI: 2950 nM
COLO 205 colon
  GI50: 1940 nM
  TGI: 3440 nM
DU-145 prostate
  GI50: 1760 nM
  TGI: 5320 nM
EKVX NSCLC
  GI50: 1190 nM
  TGI: 2930 nM
HCC-2998 colon
  GI50: 1920 nM
  TGI: 3890 nM
HCT-116 colon
  GI50: 1440 nM
  TGI: 2800 nM
HCT-15 colon
  GI50: 688 nM
  TGI: 2390 nM
HL-60(TB) leukemia
  GI50: 1880 nM
  TGI: 3300 nM
HOP-62 NSCLC
  GI50: 1910 nM
  TGI: 3930 nM
HOP-92 NSCLC
  GI50: 1700 nM
  TGI: 3360 nM
HS 578T breast
  GI50: 1190 nM
  TGI: 2500 nM
HT29 colon
  GI50: 756 nM
  TGI: 2020 nM
IGROV1 ovarian
  GI50: 273 nM
  TGI: 702 nM
K-562 leukemia
  GI50: 430 nM
  TGI: 1480 nM
KM12 colon
  GI50: 2230 nM
  TGI: 4300 nM
LOX IMVI melanoma
  GI50: 1660 nM
  TGI: 3060 nM
M14 melanoma
  GI50: 1390 nM
  TGI: 2690 nM
MALME-3M melanoma
  GI50: 1470 nM
  TGI: 2800 nM
MCF7 breast
  GI50: 1410 nM
  TGI: 2950 nM
MDA-MB-231 breast
  GI50: 2130 nM
  TGI: 4720 nM
MDA-MB-435 melanoma
  GI50: 1880 nM
  TGI: 3340 nM
MDA-MB-468 breast
  GI50: 1290 nM
  TGI: 2610 nM
MOLT-4 leukemia
  GI50: 1170 nM
  TGI: 2390 nM
NCI-H226 lung
  GI50: 24.6 nM
  TGI: 5810 nM
NCI-H23 lung
  GI50: 2340 nM
  TGI: 6210 nM
NCI-H322M lung
  GI50: 2300 nM
  TGI: 6250 nM
NCI-H460 NSCLC
  GI50: 1230 nM
  TGI: 2530 nM
NCI-H522 lung
  GI50: 475 nM
  TGI: 1460 nM
NCI/ADR-RES ovarian
  GI50: 2160 nM
  TGI: 4890 nM
OVCAR-3 ovarian
  GI50: 1040 nM
  TGI: 2340 nM
OVCAR-4 ovarian
  GI50: 1280 nM
  TGI: 3360 nM
OVCAR-5 ovarian
  GI50: 2180 nM
  TGI: 5140 nM
OVCAR-8 ovarian
  GI50: 1770 nM
  TGI: 3380 nM
PC-3 prostate
  GI50: 2040 nM
  TGI: 4950 nM
RPMI-8226 leukemia
  GI50: 1900 nM
  TGI: 3330 nM
RXF 393 renal
  GI50: 1290 nM
  TGI: 2590 nM
SF-268 CNS
  GI50: 1110 nM
  TGI: 2610 nM
SF-295 CNS
  GI50: 1750 nM
  TGI: 3160 nM
SF-539 CNS
  GI50: 1420 nM
  TGI: 2830 nM
SK-MEL-28 melanoma
  GI50: 1860 nM
  TGI: 3280 nM
SK-MEL-5 melanoma
  GI50: 1300 nM
  TGI: 2580 nM
SK-OV-3 ovarian
  GI50: 365 nM
  TGI: 1360 nM
SN12C renal
  GI50: 753 nM
  TGI: 2200 nM
SNB-19 CNS
  GI50: 2500 nM
  TGI: 7510 nM
SNB-75 CNS
  GI50: 193 nM
  TGI: 2290 nM
SW-620 colon
  GI50: 1840 nM
  TGI: 3470 nM
T-47D breast
  GI50: 453 nM
  TGI: 1420 nM
TK-10 renal
  GI50: 1550 nM
  TGI: 3440 nM
U251 glioblastoma
  GI50: 1460 nM
  TGI: 2800 nM
UACC-257 melanoma
  GI50: 1610 nM
  TGI: 2960 nM
UACC-62 melanoma
  GI50: 1720 nM
  TGI: 3130 nM
UO-31 renal
  GI50: 1370 nM
  TGI: 2670 nM
